Calls of active or inactive are those of the source.
Columns and labels:
Mu-type opioid receptor = Mu-type opioid receptor (Homo sapiens, UniProt P35372); assay type: functional, cell-based;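 further: U2OS cells with beta-arrestin recruitment to OPRM1 by beta-gal complementation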
[1] = target: 5-hydroxytryptamine receptor 2A (Mus musculus, UniProt P35363); assay type: functional, cell-based;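 further: CHO-K1 cells with tagged receptor and beta-arrestin; agonist potency measured as compound-induced activation of the receptor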
Galanin receptor type 3 = Galanin receptor type 3 (Homo sapiens, UniProt O60755); assay: Fluorescence-based cell-based primary high throughput dose response assay to identify antagonists of the Galanin Receptor 3 (GalR3).; assay type: functional
cells [2] = assay type: functional, cell-based; conditions: HEK-CNG
SUMO-activating enzyme [3] = target: T1, SUMO-activating enzyme (Homo sapiens, UniProt Q9UBT2); assay: SUMOylation inhibitor hit validation, confirmation, SUMOylation inhibitor project, biochemical, AlphaScreen (AID 2018); assay type: functional
SUMO-activating enzyme [4] = target: T1, SUMO-activating enzyme; assay: inhibitors of in vitro SUMOylation cascade, primary screen, biochemical, HTRF, uHTS (AID 2006); assay type: protein-complex assay
[5] = target: T2, Carboxy-terminal domain RNA polymerase II polypeptide A small phosphatase 1 (Homo sapiens, UniProt Q9GZU7); assay: inhibitors of CTDSP1, concentration-response testing, biochemical assay, absorbance-based, actives from ultra-high-throughput screening (AID 540297); assay type: functional
T2 sequence (Q9GZU7 whole entry): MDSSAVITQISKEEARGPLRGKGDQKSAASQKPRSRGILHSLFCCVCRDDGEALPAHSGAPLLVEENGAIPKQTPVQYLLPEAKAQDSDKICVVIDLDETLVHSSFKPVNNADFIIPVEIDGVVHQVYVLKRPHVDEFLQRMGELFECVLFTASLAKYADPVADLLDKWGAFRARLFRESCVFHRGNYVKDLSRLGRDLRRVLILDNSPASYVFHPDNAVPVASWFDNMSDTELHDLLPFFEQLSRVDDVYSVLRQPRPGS

[6] = target: T3, Tyrosine-protein phosphatase non-receptor type 11 (Homo sapiens, UniProt Q06124); assay: SHP2 phosphatase inhibition, dose response, selectivity assay for STEP inhibitor project, biochemical (AID 602367); assay type: functional; conditions: read-out: IC50_Mean
T3 sequence (Q06124 whole entry): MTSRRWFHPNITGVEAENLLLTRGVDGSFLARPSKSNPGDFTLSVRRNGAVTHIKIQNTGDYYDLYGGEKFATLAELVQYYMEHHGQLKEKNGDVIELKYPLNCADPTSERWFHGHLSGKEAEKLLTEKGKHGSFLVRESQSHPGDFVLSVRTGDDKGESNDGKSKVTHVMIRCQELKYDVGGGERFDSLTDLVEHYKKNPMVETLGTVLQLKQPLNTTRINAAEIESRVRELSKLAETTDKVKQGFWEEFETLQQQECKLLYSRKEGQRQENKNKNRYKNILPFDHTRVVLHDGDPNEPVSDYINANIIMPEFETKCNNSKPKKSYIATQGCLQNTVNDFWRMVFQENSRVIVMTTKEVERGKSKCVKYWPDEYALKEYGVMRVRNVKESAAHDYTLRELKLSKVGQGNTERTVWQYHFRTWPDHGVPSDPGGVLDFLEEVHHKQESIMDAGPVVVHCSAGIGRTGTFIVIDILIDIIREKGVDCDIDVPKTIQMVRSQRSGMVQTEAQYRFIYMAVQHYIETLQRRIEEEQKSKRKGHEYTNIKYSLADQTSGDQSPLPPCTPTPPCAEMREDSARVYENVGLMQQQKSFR

[7] = target: T4, Tyrosine-protein phosphatase non-receptor type 5 (Homo sapiens, UniProt P54829); assay: STEP phosphatase inhibitors, confirmation, biochemical, fluorescence intensity, uHTS hits (AID 602372); assay type: functional; conditions: read-out: IC50_Mean
T4 sequence (P54829 whole entry): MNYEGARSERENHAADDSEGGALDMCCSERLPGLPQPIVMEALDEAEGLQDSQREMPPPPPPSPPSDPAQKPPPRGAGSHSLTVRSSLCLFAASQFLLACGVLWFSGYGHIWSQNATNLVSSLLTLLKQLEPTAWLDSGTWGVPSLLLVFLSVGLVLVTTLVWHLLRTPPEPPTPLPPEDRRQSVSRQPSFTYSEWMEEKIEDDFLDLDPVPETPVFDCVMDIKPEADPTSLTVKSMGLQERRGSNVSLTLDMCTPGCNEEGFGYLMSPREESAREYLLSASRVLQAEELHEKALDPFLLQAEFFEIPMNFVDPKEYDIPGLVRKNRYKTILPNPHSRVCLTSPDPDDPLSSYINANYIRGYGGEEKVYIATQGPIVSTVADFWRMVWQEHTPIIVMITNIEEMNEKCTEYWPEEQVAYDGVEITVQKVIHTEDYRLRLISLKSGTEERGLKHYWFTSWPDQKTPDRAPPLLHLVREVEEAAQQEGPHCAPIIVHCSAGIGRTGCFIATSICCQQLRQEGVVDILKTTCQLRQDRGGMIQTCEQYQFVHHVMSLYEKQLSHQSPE

[8] = target: Dual specificity protein phosphatase 3 (Homo sapiens, UniProt P51452); assay: VHR phosphatase inhibition, dose response, selectivity assay for STEP inhibitor project, biochemical (AID 602374); assay type: functional; conditions: read-out: IC50_Mean
[9] = target: T5, Small ubiquitin-related modifier 1 (Homo sapiens, UniProt P63165); assay: inhibitors of SUMO1 peptide binding, dose response, biochemical, fluorescence polarization, uHTS hits (AID 624382); assay type: functional; conditions: read-out: IC50_Mean
[10] = target: T5, Small ubiquitin-related modifier 1; assay: inhibitors of SUMO1 partner interactions, dose response, biochemical, FRET (AID 624383); assay type: functional; conditions: read-out: IC50_Mean
[11] = target: T6, Tyrosine-protein phosphatase non-receptor type 22 (Homo sapiens, UniProt Q9Y2R2); assay: PTPN22 phosphatase inhibition, dose response, selectivity assay for STEP inhibitor project, biochemical (AID 624241); assay type: functional
T6 sequence (Q9Y2R2 whole entry): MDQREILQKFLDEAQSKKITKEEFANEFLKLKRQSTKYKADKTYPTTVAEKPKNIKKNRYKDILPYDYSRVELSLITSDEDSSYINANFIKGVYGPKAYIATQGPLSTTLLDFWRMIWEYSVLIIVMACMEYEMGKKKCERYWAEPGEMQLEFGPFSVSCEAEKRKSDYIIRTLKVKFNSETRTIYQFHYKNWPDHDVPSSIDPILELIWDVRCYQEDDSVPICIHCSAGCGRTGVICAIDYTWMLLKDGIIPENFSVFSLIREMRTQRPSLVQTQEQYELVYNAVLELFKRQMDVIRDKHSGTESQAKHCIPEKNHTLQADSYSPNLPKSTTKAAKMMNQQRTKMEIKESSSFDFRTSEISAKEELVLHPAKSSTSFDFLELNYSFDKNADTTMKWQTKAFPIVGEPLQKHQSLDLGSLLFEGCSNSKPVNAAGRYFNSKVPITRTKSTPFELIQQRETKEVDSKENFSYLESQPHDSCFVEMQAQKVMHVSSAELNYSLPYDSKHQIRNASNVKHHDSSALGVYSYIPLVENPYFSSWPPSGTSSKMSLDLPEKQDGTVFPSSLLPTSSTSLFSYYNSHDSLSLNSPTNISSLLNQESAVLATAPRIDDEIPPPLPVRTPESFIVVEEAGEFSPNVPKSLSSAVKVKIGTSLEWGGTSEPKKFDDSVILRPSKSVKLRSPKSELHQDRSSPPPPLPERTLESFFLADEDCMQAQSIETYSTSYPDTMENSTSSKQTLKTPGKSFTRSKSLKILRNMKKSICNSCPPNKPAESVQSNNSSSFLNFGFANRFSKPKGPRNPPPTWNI

[12] = target: T7, Low molecular weight phosphotyrosine protein phosphatase (Homo sapiens, UniProt P24666); assay type: functional; conditions: read-out: IC50_Mean
T7 sequence (P24666 whole entry): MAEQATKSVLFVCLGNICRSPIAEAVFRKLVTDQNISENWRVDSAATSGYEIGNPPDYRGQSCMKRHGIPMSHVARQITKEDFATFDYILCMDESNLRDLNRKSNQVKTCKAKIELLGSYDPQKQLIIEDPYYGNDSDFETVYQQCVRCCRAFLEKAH

[13] = Luminescence Cell-Based Dose Retest to Confirm Inhibitors of Cancer Stem Cells. [Related pubchem assays (depositor defined):AID2717, AID2721]; assay type: functional; conditions: Homo sapiens
[14] = target: T7, Low molecular weight phosphotyrosine protein phosphatase; assay type: functional; conditions: read-out: IC50_Mean; remark: listed apart in the source
cells [15] = assay type: functional, cell-based
[16] = target: Nuclear receptor subfamily 0 group B member 1 (Homo sapiens, UniProt P51843); assay type: functional, cell-based;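 further: HEK293T cells transfected with SF-1 and DAX-1 plus StAR promoter luciferase reporter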
[17] = target: Heat shock protein HSP 90-alpha (Homo sapiens, UniProt P07900); assay type: functional, organism-based
[18] = target: Disintegrin and metalloproteinase domain-containing protein 17 (Homo sapiens, UniProt P78536); assay: exosite inhibitors of ADAM17, dose response, biochemical (AID 743260)
[19] = ADAM10 protease inhibitors, dose response, selectivity assay for ADAM17 exosite inhibitor project, biochemical, FRET peptide substrate, recombinant human ADAM10 (AID 743259);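 further: ADAM10 enzyme cleaving a FRET peptide substrate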
Lethal factor = Lethal factor (Bacillus anthracis, UniProt P15917); assay: High-throughput multiplex microsphere dose response for inhibitors of toxin protease, specifically Lethal Factor protease, compounds from Cherry Pick 02.; assay type: functional; conditions: read-out: EC50_MICROM
[20] = target: Botulinum neurotoxin type F (Clostridium botulinum, UniProt P30996); assay: High-throughput multiplex microsphere dose response for inhibitors of toxin protease, specifically Botulinum neurotoxin light chain F protease, compounds from Cherry Pick 02.; assay type: functional; conditions: read-out: EC50_MICROM
Sequence of Botulinum neurotoxin type F (P30996 1-436 limits assumed): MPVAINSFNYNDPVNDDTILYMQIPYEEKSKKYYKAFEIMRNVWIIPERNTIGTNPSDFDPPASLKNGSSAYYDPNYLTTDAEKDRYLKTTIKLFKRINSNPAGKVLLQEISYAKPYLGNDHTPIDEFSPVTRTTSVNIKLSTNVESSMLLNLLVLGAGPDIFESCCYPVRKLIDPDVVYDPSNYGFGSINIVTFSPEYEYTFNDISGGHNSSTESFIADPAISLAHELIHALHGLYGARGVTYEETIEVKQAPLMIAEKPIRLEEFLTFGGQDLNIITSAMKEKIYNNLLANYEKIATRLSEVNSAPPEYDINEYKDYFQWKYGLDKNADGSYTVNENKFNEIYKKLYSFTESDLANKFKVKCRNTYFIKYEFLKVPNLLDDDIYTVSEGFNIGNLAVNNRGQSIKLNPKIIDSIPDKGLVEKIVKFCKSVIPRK

T1 sequence (Q9UBE0 whole entry): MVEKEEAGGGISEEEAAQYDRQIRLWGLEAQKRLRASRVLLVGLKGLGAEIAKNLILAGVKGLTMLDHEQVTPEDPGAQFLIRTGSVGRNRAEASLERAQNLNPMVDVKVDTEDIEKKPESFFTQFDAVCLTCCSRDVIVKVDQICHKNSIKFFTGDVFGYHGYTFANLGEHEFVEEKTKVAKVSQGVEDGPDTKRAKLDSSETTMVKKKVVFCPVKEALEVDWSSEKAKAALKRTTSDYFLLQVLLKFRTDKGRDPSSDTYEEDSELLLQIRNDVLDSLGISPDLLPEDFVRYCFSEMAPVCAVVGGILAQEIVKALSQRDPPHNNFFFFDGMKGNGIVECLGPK
T1 sequence (Q9UBT2 whole entry): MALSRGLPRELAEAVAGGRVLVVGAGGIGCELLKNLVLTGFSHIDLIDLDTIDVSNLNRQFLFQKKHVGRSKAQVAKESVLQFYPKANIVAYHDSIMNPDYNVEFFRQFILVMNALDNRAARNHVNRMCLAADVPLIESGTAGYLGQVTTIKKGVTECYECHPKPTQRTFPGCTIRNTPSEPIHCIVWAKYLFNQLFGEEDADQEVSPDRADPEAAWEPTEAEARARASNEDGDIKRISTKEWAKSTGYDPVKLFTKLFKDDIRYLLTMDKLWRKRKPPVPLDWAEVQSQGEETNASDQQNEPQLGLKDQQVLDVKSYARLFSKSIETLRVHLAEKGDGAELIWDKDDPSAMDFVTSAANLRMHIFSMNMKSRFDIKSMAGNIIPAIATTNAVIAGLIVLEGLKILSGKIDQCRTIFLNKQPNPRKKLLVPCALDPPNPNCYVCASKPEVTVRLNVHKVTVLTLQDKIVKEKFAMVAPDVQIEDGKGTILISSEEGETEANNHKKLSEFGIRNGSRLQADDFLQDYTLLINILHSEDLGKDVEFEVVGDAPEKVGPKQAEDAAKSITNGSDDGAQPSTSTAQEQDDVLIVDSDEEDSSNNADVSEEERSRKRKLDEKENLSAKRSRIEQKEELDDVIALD
T5 sequence (P63165 whole entry): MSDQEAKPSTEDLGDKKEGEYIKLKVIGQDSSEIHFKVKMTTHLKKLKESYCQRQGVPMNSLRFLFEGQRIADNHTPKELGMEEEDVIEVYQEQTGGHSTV
Sequence of Mu-type opioid receptor (P35372 whole entry): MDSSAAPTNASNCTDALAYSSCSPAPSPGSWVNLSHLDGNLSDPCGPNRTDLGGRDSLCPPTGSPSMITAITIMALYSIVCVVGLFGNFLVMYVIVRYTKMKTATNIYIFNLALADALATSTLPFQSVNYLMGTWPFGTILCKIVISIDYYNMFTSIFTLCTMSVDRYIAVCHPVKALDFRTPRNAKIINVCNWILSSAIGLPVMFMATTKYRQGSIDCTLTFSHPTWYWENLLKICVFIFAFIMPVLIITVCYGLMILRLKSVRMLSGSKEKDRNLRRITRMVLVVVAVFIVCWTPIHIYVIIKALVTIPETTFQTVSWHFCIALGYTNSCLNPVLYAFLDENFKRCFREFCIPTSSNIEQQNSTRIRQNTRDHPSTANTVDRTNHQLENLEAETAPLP
Sequence of Galanin receptor type 3 (O60755 whole entry): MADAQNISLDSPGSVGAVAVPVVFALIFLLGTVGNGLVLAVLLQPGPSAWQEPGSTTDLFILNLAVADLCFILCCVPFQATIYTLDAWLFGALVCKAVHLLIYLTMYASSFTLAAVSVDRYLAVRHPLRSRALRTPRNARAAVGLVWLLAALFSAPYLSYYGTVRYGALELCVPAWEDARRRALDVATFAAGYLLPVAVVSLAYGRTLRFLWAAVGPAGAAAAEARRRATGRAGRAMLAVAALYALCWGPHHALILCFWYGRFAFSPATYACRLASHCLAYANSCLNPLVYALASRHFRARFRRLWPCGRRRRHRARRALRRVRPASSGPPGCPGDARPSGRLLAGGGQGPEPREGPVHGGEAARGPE
Sequence of Lethal factor (P15917 whole entry): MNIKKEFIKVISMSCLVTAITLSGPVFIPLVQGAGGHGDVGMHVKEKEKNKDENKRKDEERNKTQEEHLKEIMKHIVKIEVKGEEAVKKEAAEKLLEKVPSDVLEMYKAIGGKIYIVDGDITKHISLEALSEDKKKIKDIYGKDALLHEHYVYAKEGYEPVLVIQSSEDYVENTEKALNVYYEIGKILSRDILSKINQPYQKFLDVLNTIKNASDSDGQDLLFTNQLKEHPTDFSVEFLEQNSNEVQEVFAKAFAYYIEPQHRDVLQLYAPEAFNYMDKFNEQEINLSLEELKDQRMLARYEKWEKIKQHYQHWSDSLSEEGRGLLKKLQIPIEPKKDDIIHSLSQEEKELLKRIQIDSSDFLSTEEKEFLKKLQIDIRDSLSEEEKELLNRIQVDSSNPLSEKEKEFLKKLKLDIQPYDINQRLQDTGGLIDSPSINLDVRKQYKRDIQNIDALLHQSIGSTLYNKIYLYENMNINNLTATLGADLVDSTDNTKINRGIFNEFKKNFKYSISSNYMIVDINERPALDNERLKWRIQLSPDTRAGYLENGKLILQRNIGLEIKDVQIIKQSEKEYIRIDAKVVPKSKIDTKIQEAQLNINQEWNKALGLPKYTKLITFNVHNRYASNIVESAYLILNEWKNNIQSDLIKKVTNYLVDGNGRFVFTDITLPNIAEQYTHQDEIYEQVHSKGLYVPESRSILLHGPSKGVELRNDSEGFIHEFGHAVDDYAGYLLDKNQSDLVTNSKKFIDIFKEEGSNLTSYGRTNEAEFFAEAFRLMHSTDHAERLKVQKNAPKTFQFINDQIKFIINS
Sequence of Disintegrin and metalloproteinase domain-containing protein 17 (P78536 whole entry, the tested form may be a part): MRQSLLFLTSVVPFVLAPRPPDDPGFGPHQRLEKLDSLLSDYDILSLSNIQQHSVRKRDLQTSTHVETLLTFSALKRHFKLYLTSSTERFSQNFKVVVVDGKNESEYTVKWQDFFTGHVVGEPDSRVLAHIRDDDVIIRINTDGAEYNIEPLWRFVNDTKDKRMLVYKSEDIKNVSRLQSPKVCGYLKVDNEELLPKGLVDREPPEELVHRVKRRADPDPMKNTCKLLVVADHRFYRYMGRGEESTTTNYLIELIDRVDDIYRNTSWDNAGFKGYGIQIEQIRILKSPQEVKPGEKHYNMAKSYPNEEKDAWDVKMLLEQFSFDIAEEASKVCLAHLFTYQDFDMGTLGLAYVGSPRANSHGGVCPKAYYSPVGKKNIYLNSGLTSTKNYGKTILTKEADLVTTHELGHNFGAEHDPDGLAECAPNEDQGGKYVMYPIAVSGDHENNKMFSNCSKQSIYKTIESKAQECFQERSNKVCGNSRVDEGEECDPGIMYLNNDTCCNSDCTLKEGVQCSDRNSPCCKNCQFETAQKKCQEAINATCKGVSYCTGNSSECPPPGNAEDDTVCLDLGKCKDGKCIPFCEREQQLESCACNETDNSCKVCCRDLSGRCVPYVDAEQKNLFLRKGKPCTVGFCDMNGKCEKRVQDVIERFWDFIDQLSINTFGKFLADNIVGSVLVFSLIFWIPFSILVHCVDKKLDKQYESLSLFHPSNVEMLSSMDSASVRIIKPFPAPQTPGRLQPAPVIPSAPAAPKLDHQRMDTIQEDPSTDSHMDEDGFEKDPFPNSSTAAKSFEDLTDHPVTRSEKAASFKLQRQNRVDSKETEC
Sequence of Nuclear receptor subfamily 0 group B member 1 (P51843 whole entry): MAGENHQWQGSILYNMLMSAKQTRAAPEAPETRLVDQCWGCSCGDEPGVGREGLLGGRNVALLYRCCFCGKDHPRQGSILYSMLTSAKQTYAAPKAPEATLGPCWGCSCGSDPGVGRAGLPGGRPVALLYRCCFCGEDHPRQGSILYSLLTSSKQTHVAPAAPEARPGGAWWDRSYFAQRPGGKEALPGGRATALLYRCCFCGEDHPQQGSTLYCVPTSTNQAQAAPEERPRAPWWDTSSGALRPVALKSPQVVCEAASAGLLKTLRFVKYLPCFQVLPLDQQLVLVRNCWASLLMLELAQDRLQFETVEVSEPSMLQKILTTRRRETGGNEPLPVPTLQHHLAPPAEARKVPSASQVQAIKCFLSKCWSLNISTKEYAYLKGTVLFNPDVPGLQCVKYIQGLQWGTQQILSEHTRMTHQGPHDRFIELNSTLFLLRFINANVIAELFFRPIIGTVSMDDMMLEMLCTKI
Sequence of Dual specificity protein phosphatase 3 (P51452 whole entry): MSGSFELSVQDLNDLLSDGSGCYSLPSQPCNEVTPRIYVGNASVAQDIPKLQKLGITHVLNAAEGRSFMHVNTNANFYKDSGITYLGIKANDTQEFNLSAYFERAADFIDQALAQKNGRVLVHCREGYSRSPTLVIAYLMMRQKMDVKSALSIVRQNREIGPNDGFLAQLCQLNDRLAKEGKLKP

SMILES: O=C(c1ccco1)N1CCN(Cc2ccc(Br)cc2)CC1
- EC50 (Mu-type opioid receptor): 92.4 µM (inactive)
- EC50 [1]: 2.24 µM (active)

SMILES: COC(=O)CSc1nc(N)c(C#N)c(-c2ccc(O)cc2)c1C#N
- IC50 (Galanin receptor type 3): > 29.9 µM (inactive)
- EC50 (cells [2]): > 29.9 µM (inactive)

SMILES: Cc1c(CC(=O)O)c(=O)oc2c(C)c(OCc3ccc(F)cc3Cl)ccc12
- IC50 (SUMO-activating enzyme [3]): > 100 µM (inactive)
- IC50 (SUMO-activating enzyme [4]): 12.5 µM (active)
- IC50 [5]: 2.17 µM (active)
- IC50 [6]: 2.48 µM (active)
- IC50 [7]: 5.58 µM (active)
- IC50 [8]: 3.68 µM (active)
- IC50 [9]: > 66.6 µM (inactive)
- IC50 [10]: 15.7 µM (active)
- IC50 [11]: 12.7 µM (active)
- IC50 [12]: 11.5 µM (active)

SMILES: CC(Nc1nc(-c2ccccc2)nc2ccccc12)c1ccccc1 (centres undefined)
- AC50 [13]: 4.43 µM (active)
- IC50 [14]: > 80 µM (inactive)
- IC50 [12]: 23.1 µM (inactive)
- IC50 (cells [15]): > 67.5 µM (inactive)
- IC50 [16]: > 67.5 µM (inactive)

SMILES: OCCCn1c(C2CCCN2c2nc(-c3ccc(F)cc3)cs2)nc2cc(Cl)c(Cl)cc21 (centres undefined)
- AC50 [17]: 5.05 µM (active)
- IC50 [18]: > 69.5 µM (inactive)
- IC50 [19]: > 69.5 µM (inactive)

SMILES: CCCCCCCCC(c1nc2cc(C)c(C)cc2[nH]1)n1c(=O)c(-c2ccccc2Br)nc2ccccc21 (centres undefined)
- EC50 (Lethal factor): 17.9 µM (active)
- EC50 [20]: > 20 µM (inactive)
